In PubChem BioAssay AID1996:
Values after ≈ are worked out from the molar mass of the structure shown.

Details: buffer; pH 7.4; 200.0 µM

| SMILES | solubility kinetic [µg/mL] |
| --- | --- |
| CS(=O)(=O)N1CCCC(C(=O)Nc2c(F)cccc2F)C1 (stereo not given) | > 47.8 |
| C#CC(CC)(CC)NC(=O)/C=C/C(=O)O | 27.7 (≈ 132 µM) |
| COc1ccc(CC(C)NCCC(c2ccccc2)c2ccccc2)cc1 (stereo not given) | 47.1 (≈ 131 µM) |
| N#Cc1sc(NCc2ccccn2)nc1Cl | > 37.6 |
| c1ccc2c(c1)nc(N1CCOCC1)c1ccccc12 | 14.9 (≈ 56.4 µM) |
| COc1ccc(/C=C/C(=O)NC(CCSC)C(=O)O)cc1 (stereo not given) | > 46.4 |
| COCCN1C2=C(COC(C)(C)C2)C(=S)NC1c1ccccc1 (stereo not given) | > 49.9 |
| CC1CC(C)CN(C(=O)/C=C/c2ccc([N+](=O)[O-])s2)C1 (stereo not given) | 5.8 (≈ 19.7 µM) |
| Nc1c(C(=O)OCC(=O)Nc2cccc([N+](=O)[O-])c2)[nH]c(=O)[nH]c1=O | 51.5 (≈ 147 µM) |
| CC(c1ccccc1)N1C(=O)OC(C)(C)C1(C)O (stereo not given) | > 37.4 |
| Cc1ccccc1Oc1nc(-c2ccccn2)nc2ccccc12 | 35 (≈ 112 µM) |
| CSc1ccccc1NC(=O)c1cc(-c2ccco2)on1 | 1.1 (≈ 3.66 µM) |
| COc1cccc(C(=O)Nc2ccncc2)c1OC | > 38.7 |
| COc1ccc(CNC(=O)c2csc3c2CCCC3)cc1 | 23.2 (≈ 77 µM) |
| COc1ccc(C(=O)N2CCN(c3ccc(C(C)=O)cc3)CC2)cc1S(=O)(=O)N1CCCC1 | > 70.7 |
| O=c1c2[nH]cnc2n(-c2cccc(F)c2)c(=O)n1Cc1ccccc1 | > 50.4 |
| COc1ccc2cc(C(=O)NCc3ccccc3)c(=O)oc2c1 | < 0.7 |
| COc1cc2nc(CCc3ccccc3)oc(=O)c2cc1OC | > 46.7 |
| Nc1nc(NC(=O)c2ccccc2Cl)nn1-c1ccccc1 | > 47.1 |
| N#Cc1ccc(OCC(=O)Nc2ccc(N3CCCC3)cc2)cc1 | 5.9 (≈ 18.4 µM) |

| SMILES | solubility kinetic [µg/mL] |
| --- | --- |
| O=C(NCC1CCCO1)c1cc2cc(F)ccc2[nH]1 (stereo not given) | 36.8 (≈ 140 µM) |
| CCOC(=O)N1CCN(C/C(Cl)=C/c2ccccc2)CC1 | 29.8 (≈ 96.5 µM) |
| O=C(NC1CC1)C1CCCN1C(=O)NC1CCCCC1 (stereo not given) | > 41.9 |
| Cc1cc2cc(C#N)c(N3CCOCC3)nc2cc1Cl | 0.5 (≈ 1.74 µM) |
| CN1C(c2ccccc2)CC(=NO)CC1c1ccccc1 (stereo not given) | 1.4 (≈ 4.99 µM) |
| Fc1ccc(NC(=S)Nc2cccc3ccccc23)cc1 | 16.7 (≈ 56.3 µM) |
| CSc1ccccc1C(=O)NCc1cccnc1 | > 38.8 |
| CC(=O)Nc1ccc(C(=O)OCC(=O)Nc2ccc(S(=O)(=O)N3CCOCC3)cc2)cc1 | > 69.2 |
| CC1=C(C)C(OCCCl)N(c2cc(O)c(Cl)cc2F)C1=O (stereo not given) | 46.3 (≈ 139 µM) |
| CCCCCC1CC(CC(=O)Nc2ccc([N+](=O)[O-])cc2)OC1=O (stereo not given) | 0.5 (≈ 1.5 µM) |
| CCOc1ccccc1NC(=O)c1nc(-c2ccccc2)oc1C | 0.9 (≈ 2.79 µM) |
| Cc1ccc(OCC(=O)NCCO)c(Br)c1 | > 43.2 |
| CSc1ccccc1C(=O)C1CCCN(S(=O)(=O)N(C)C)C1 (stereo not given) | > 51.4 |
| Cc1cc(Cl)ccc1OCC(=O)Nc1ccc(CN2CCOCC2)cc1 | 41.3 (≈ 110 µM) |
| Cc1cnc(C(=O)OCC(=O)NCc2cccc(Cl)c2)cn1 | > 48 |
| CCc1cccc(NC(=O)C2CCN(c3ncnc4sc(C)c(C)c34)CC2)c1 | 2.7 (≈ 6.84 µM) |
| O=C(O)c1cc(S(=O)(=O)NCC2COc3ccccc3O2)ccc1Cl (stereo not given) | > 57.6 |
| COc1ccc(N2CCCC2)c(NC(=O)COc2ccccc2)c1 | 3.8 (≈ 11.6 µM) |
| O=S(=O)(Nc1ccccc1Cl)c1ccc(-c2ccccn2)s1 | 35.8 (≈ 102 µM) |
| CC1(C)CN=C(N(C(=O)Nc2ccccc2)c2ccccc2F)S1 | 8.3 (≈ 24.2 µM) |

| SMILES | solubility kinetic [µg/mL] |
| --- | --- |
| N#Cc1ccc(C(=O)NN2C(=O)NC3(CCCCC3)C2=O)cc1 | > 46.8 |
| CCN(C1CCS(=O)(=O)C1)S(=O)(=O)c1ccc2ccccc2c1 (stereo not given) | 15.9 (≈ 45 µM) |
| Cc1nnc(SCC(=O)NC(C)(C)C)n1NCc1cccc(Br)c1 | > 61.9 |
| O=C(CN1C(=O)NC(c2ccccc2)(c2ccccc2)C1=O)Nc1ccc(N2CCOCC2)cc1 | 2.6 (≈ 5.53 µM) |
| CCCCNC(=O)N1CCN(c2ccnc3cc(Cl)ccc23)CC1 | > 52 |
| Cc1csc(NC(=O)c2ccc3ccccc3n2)n1 | 4 (≈ 14.9 µM) |
| COc1ccccc1/C=C/C(=O)OC(C)CN1CCCCC1.Cl (stereo not given) | > 51 |
| CCC(=O)NCc1ccc(-c2nc3ncccc3o2)cc1 | > 42.2 |
| COc1ccc(NS(=O)(=O)c2ccc3oc(=O)ccc3c2)cc1 | > 49.7 |
| CCSc1nc2ccccc2n1CC(=O)O | > 35.4 |
| NC(=O)c1ccccc1NCC(=O)c1ccc(F)cc1 | > 40.8 |
| COc1ccc(S(=O)(=O)N2CCN(CC(=O)N3CCOCC3)CC2)cc1OC | > 62 |
| Cc1nc2oc3ccc(Cl)cc3c(=O)c2cc1C(=O)O | > 43.5 |
| Cn1c(=NC(=O)COc2ccccc2)sc2cc(F)cc(F)c21 | < 0.4 |
| CN(C)c1ccc(/C=N/NC(=O)c2ccc3nc[nH]c3c2)cc1 | > 46.1 |
| NC(=O)C1(C(N)=O)OC1c1ccc(Cl)c(Cl)c1 (stereo not given) | > 41.3 |
| O=C(NC1CCCC1)c1ccccc1OCc1ccccc1 | 15 (≈ 50.8 µM) |
| CCn1c(NC(C)=O)c(-c2ccccc2Cl)c(=O)c2ccccc21 | 49.5 (≈ 145 µM) |
| O=S(=O)(Nc1ccncc1)c1cc(Cl)ccc1Cl | 21.2 (≈ 69.9 µM) |
| Cc1ccsc1CNS(=O)(=O)c1ccc(F)cc1 | 30 (≈ 105 µM) |
